The results in this text go back to patent US12240862B2, “Inhibitors of peptidylarginine deiminases” (Gilead Sciences, Inc., priority 2020, dated 2025).

The target of the assay is T1, human PAD4 (Homo sapiens, UniProt Q9UM07).
T1 construct: human PAD4 (NM_012387), A2P663, was PCR amplified; His-SUMO (N, cleaved yes); made in house; host or cells: E. coli BL21(DE3)
T1 sequence (Q9UM07 2-663): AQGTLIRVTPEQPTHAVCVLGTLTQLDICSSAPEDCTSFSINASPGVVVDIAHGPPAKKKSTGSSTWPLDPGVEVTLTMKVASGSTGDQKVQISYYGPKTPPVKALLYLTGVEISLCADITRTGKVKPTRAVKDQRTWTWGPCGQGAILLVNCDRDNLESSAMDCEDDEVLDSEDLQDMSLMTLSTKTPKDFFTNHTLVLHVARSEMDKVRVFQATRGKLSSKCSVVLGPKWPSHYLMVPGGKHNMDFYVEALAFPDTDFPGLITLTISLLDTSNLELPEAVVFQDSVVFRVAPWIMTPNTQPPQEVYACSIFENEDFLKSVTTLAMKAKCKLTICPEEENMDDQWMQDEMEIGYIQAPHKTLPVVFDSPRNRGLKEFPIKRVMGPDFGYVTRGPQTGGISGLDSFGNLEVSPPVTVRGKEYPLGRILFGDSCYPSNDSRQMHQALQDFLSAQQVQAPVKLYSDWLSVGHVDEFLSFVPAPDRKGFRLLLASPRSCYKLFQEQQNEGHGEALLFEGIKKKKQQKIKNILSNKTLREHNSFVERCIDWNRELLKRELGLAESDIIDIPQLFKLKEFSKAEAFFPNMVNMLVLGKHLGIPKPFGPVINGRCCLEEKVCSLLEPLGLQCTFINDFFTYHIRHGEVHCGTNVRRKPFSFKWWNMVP
Briefly: In vitro PAD4 BAEE biochemical assay. To be noted: human PAD4, BAEE substrate; 5 nM PAD4, 2 mM calcium chloride, 3 mM BAEE; geometric mean of multiple experiments. In outline: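 Ammonia generated from BAEE serves as the readout, measured by o-phthalaldehyde after EDTA termination. Final conditions: 5 nM human PAD4 (SUMO tag cleaved), 2 mM CaCl2, 3 mM BAEE, pH 7.6 MOPS buffer, 25 °C for 2 h following a 30-min compound preincubation.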
A word on the IC50: it is the concentration that gives 50% inhibition. Take `COc1cc(C(=O)N2CCC[C@@H](N)C2)cc2nc(-c3cc4ccc(N(C(F)F)S(C)(=O)=O)nc4n3CC(F)(F)F)c(C)n12` [Example 494, ~{N}-[2-[7-[(3~{R})-3-aminopiperidine-1-carbonyl]-5-methoxy-3-methylimidazo[1,2-a]pyridin-2-yl]-1-(2,2,2-trifluoroethyl)pyrrolo [2,3-b]pyridin-6-yl]-~{N}-(difluoromethyl) methanesulfonamide]: the IC50 stood at 276 nM. Regarding `COc1cc(C(=O)N2[C@@H]3CC[C@H]2[C@@H](N)[C@@H](OC)C3)cc2nc(-c3cc4ccc([C@@H](C)NC(=O)C56CC(F)(C5)C6)nc4n3CC3CC3)c(C)n12` [Example 182], the IC50 was 1360 nM.

For `COc1cc(C(=O)N2[C@H]3CC[C@@H]2[C@H](N)C3)cc2nc(-c3cc4ccc([C@@H](C)Nc5cccc(Cl)n5)nc4n3CC3CC3)c(C)n12` [Example 262, [(1~{R},2~{R},4~{S})-2-amino-7-azabicyclo [2.2.1]heptan-7-yl]-[2-[6-[(1~{R})-1-[(6-chloropyridin-2-yl)amino]ethyl]-1-(cyclopropylmethyl)pyrrolo[2,3-b]pyridin-2-yl]-5-methoxy-3-methylimidazo[1,2-a]pyridin-7-yl]methanone], the IC50 was determined as 867 nM. Consider `COc1cc(C(=O)NC[C@@H]2CCCCN2)cc2nc(-c3cc4ccc(N(C(F)F)S(C)(=O)=O)nc4n3CC3CC3)c(C)n12` [Example 294, 2-[1-(cyclopropylmethyl)-6-[difluoromethyl (methylsulfonyl)amino]pyrrolo[2,3-b]pyridin-2-yl]-5-methoxy-3-methyl-~ {N}-[[(2~{S})-piperidin-2-yl]methyl]imidazo[1,2-a]pyridine-7-carboxamide], for which the IC50 stood at 38400 nM. For the compound `COc1cc(C(=O)N2[C@H]3CC[C@@H]2[C@H](N)C3)cc2nc(-c3cc4ccc([C@@H](C)NC(=O)c5ccccc5)nc4n3CC3CC3)c(C3CC3)n12` [Example 142, ~{N}-[(1~{R})-1-[2-[7-[(1~{R},2~{R},4~{S})-2-amino-7-azabicyclo[2.2.1]heptane-7-carbonyl]-3-cyclopropyl-5-methoxyimidazo[1,2-a]pyridin-2-yl]-1-(cyclopropylmethyl)pyrrolo [2,3-b]pyridin-6-yl]ethyl] benzamide], the concentration for half-maximal inhibition (IC50) was determined as 121 nM. The value for `COc1cc(C(=O)N2[C@H]3CC[C@@H]2[C@H](N)C3)cc2nc(-c3cc4ccc([C@@H](C)NC(=O)C(C)(O)C5CC5)nc4n3CC3CC3)c(C)n12` (stereo partly shown) [Example 92, ~{N}-[(1~{R})-1-[2-[7-[(1~ {R},2~{R},4~{S})-2-amino-7-azabicyclo[2.2.1]heptane-7-carbonyl]-5-methoxy-3-methylimidazo [1,2-a]pyridin-2-yl]-1-(cyclopropylmethyl)pyrrolo [2,3-b]pyridin-6-yl]ethyl]-2-cyclopropyl-2-hydroxypropanamide] was 59.7 nM; that for `COc1cc(C(=O)N2[C@H]3CC[C@@H]2[C@H](N)C3)cc2nc(-c3cc4ccc(C(C)Cc5nnc(C)o5)nc4n3CC3CC3)c(C)n12` (stereo partly shown) [Example 516, [(1~{R},2~{R},4~{S})-2-amino-7-azabicyclo [2.2.1]heptan-7-yl]-[2-[1-(cyclopropylmethyl)-6-[1-(5-methyl-1,3,4-oxadiazol-2-yl)propan-2-yl]pyrrolo[2,3-b]pyridin-2-yl]-5-methoxy-3-methylimidazo[1,2-a]pyridin-7-yl]methanone] was 65.6 nM; that for `COc1cc(C(=O)N2C[C@H]3CC[C@@H]2[C@H](N)C3)cc2nc(-c3cc4ccc(N(C(F)F)S(C)(=O)=O)nc4n3CC3CC3)c(C)n12` (single isomer, unassigned) [Example 369, ~{N}-[2-[7-[(1~{S},4~{R}, 6~{R})-6-amino-2-azabicyclo[2.2.2]octane-2-carbonyl]-5-methoxy-3-methylimidazo[1,2-a]pyridin-2-yl]-1-(cyclopropylmethyl)pyrrolo [2,3-b]pyridin-6-yl]-~{N}-(difluoromethyl) methanesulfonamide] was 13600 nM. For the compound `COc1cc(C(=O)N2[C@H]3CC[C@@H]2[C@H](N)C3)cc2nc(-c3cc4ccc([C@@H](C)NC(=O)NC(C)(C)C(F)(F)F)nc4n3CC3CC3)c(C)n12` [Example 213, 1-[(1~{R})-1-[2-[7-[(1~{R},2~{R},4~{S})-2-amino-7-azabicyclo[2.2.1]heptane-7-carbonyl]-5-methoxy-3-methylimidazo [1,2-a]pyridin-2-yl]-1-(cyclopropylmethyl)pyrrolo [2,3-b]pyridin-6-yl]ethyl]-3-(1,1,1-trifluoro-2-methylpropan-2-yl)urea], the IC50 was found to be 46.9 nM. Turning to `COc1cc(C(=O)N2[C@H]3CC[C@@H]2[C@H](N)C3)cc2nc(-c3cc4ccc([C@@H](C)Nc5cnccn5)nc4n3CC3CC3)c(C)n12` [Example 263, [(1~{R},2~{R},4~{S})-2-amino-7-azabicyclo [2.2.1]heptan-7-yl]-[2-[1-(cyclopropylmethyl)-6-[(1~{R})-1-(pyrazin-2-ylamino)ethyl]pyrrolo [2,3-b]pyridin-2-yl]-5-methoxy-3-methylimidazo[1,2-a]pyridin-7-yl]methanone], the IC50 was determined as 71.1 nM.

Turning to `COc1cc(C(=O)N2CCC3(CNC3)C2)cc2nc(-c3cc4ccc(N(C(F)F)S(C)(=O)=O)nc4n3CC3CC3)c(C)n12` [Example 380, ~{N}-[1-(cyclopropylmethyl)-2-[7-(2,6-diazaspiro[3.4]octane-6-carbonyl)-5-methoxy-3-methylimidazo[1,2-a]pyridin-2-yl]pyrrolo[2,3-b]pyridin-6-yl]-~{N}-(difluoromethyl) methanesulfonamide], the IC50 was 24700 nM. `COc1cc(C(=O)N2[C@H]3CC[C@@H]2[C@H](N)C3)cc2nc(-c3cc4ccc(N5CCOc6ccccc6S5(=O)=O)nc4n3CC3CC3)c(C)n12` [Example 460, [(1~{R},2~{R},4~{S})-2-amino-7-azabicyclo [2.2.1]heptan-7-yl]-[2-[1-(cyclopropylmethyl)-6-(1,1-dioxo-3,4-dihydro-5,1$l^6,2-benzoxathiazepin-2-yl)pyrrolo[2,3-b]pyridin-2-yl]-5-methoxy-3-methylimidazo[1,2-a]pyridin-7-yl]methanone]: the IC50 worked out at 99.9 nM.

`CSc1cc(C(=O)N2CCC[C@@H](N)C2)cc2nc(-c3cc4ccc(N(C(F)F)S(C)(=O)=O)nc4n3CC3CC3)c(C)n12` [Example 387, ~{N}-[2-[7-[(3~{R})-3-aminopiperidine-1-carbonyl]-3-methyl-5-methylsulfanylimidazo[1,2-a]pyridin-2-yl]-1-(cyclopropylmethyl)pyrrolo [2,3-b]pyridin-6-yl]-~{N}-(difluoromethyl) methanesulfonamide]: the IC50 turned out to be 779 nM.

Turning to `COc1cc(C(=O)NC[C@@H]2CCCN2)cc2nc(-c3cc4ccc(N(C(F)F)S(C)(=O)=O)nc4n3CC3CC3)c(C)n12` [Example 303, 2-[1-(cyclopropylmethyl)-6-[difluoromethyl (methylsulfonyl)amino]pyrrolo[2,3-b]pyridin-2-yl]-5-methoxy-3-methyl-~{N}-[[(2~{S})-pyrrolidin-2-yl]methyl] imidazo[1,2-a] pyridine-7-carboxamide], the IC50 came out at 23500 nM. For `COc1cc(C(=O)N2C[C@@H]3CCCN[C@@H]3C2)cc2nc(-c3cc4ccc(N(C(F)F)S(C)(=O)=O)nc4n3CC3CC3)c(C)n12` [Example 337, ~{N}-[2-[7-[(4~{a}~{S}, 7~{a}~{S})-1,2,3,4,4~{a},5,7,7~{a}-octahydropyrrolo[3,4-b]pyridine-6-carbonyl]-5-methoxy-3-methylimidazo[1,2-a]pyridin-2-yl]-1-(cyclopropylmethyl)pyrrolo [2,3-b]pyridin-6-yl]-~{N}-(difluoromethyl) methanesulfonamide], the IC50 was determined as 12100 nM. As to `CCCC(=O)N[C@H](C)c1ccc2cc(-c3nc4cc(C(=O)N5[C@H]6CC[C@@H]5[C@H](N)C6)cc(OC)n4c3C)n(CC3CC3)c2n1` [Example 90, ~{N}-[(1~{R})-1-[2-[7-[(1~{R},2~{R},4~{S})-2-amino-7-azabicyclo[2.2.1]heptane-7-carbonyl]-5-methoxy-3-methylimidazo [1,2-a]pyridin-2-yl]-1-(cyclopropylmethyl)pyrrolo [2,3-b]pyridin-6-yl]ethyl]butanamide], the IC50 is 30.4 nM. Turning to `COc1cc(C(=O)N2[C@H]3CC[C@@H]2[C@H](N)C3)cc2nc(-c3cc4ccc([C@@H](C)NC(=O)c5cccnc5)nc4n3CC3CC3)c(C)n12` [Example 120, ~{N}-[(1~{R})-1-[2-[7-[(1~{R},2~{R},4~{S})-2-amino-7-azabicyclo[2.2.1]heptane-7-carbonyl]-5-methoxy-3-methylimidazo [1,2-a]pyridin-2-yl]-1-(cyclopropylmethyl)pyrrolo [2,3-b]pyridin-6-yl]ethyl]pyridine-3-carboxamide], the IC50 was found to be 30.1 nM. The value for `COc1cc(C(=O)N2[C@@H]3CC[C@@H](N)[C@H]2CC3)cc2nc(-c3cc4ccc(N(C(F)F)S(C)(=O)=O)nc4n3CC(F)(F)F)c(C)n12` [Example 495, ~{N}-[2-[7-[(1~{R},2~{R}, 5~{R})-2-amino-8-azabicyclo[3.2.1]octane-8-carbonyl]-5-methoxy-3-methylimidazo[1,2-a]pyridin-2-yl]-1-(2,2,2-trifluoroethyl)pyrrolo [2,3-b]pyridin-6-yl]-~{N}-(difluoromethyl) methanesulfonamide] was 202 nM; that for `CCc1cc2c(cc1F)cc(-c1nc3cc(C(=O)N4CCC[C@@H](N)C4)cc(OC)n3c1C)n2CC1CC1` [Example 589, [(3~{R})-3-aminopiperidin-1-yl]-[2-[1-(cyclopropylmethyl)-6-ethyl-5-fluoroindol-2-yl]-5-methoxy-3-methylimidazo[1,2-a]pyridin-7-yl]methanone] was 2680 nM.
